Test results from patent US8158088B2, “Extractant compositions for co-extracting cesium and strontium, a method of separating cesium and strontium from an aqueous feed, and calixarene compounds” (Battelle Energy Alliance, LLC, priority 2008, dated 2012).

Tests used:
[1] = Solvent stability: strontium distribution ratios as a function of contact time with 1.5 M HNO3; type: physicochemical
Procedure: The stability of the mixed extractant solvents prepared using dialkyloxycalix[4]arenebenzocrown-6 compounds (MC-8, MC-8B, MC-10, MC-10B, MC-12, or MC-12B) relative to BOBCalixC6 in the FPEX I process solvent was determined. Samples were prepared using each of the dialkyloxycalix[4]arenebenzocrown-6 compounds and contacted with 1.5 M HNO3. The samples included 0.007 M of the respective dialkyloxycalix[4]arenebenzo-crown-6 compound (MC-8, MC-8B, MC-10, MC-10B, MC-12, or MC-12B), 0.075 M DtBuCH18C6, 0.75 M Cs-7SB modifier, and 0.003 M TOA in ISOPAR® L. The stability of the dialkyloxycalix[4]arene-benzocrown-6 based solvents was evaluated by measuring the cesium and strontium distribution ratios as a function of contact time. These cesium and strontium distribution ratios for the mixed extractant solvents are presented in Table 9 and Table 10, respectively, along with the cesium and strontium distribution ratios for the FPEX I process solvent. The symbol “-” is used in Tables 9 and 10 to indicate no data was collected.
This degradation is likely due to chemical attack or nitration of the BOBCalixC6 in the FPEX I process solvent. […] However, it is difficult to compare the relative extents of degradation. In order to compare the different extractants, the distribution ratio data presented in Tables 9 and 10 were normalized to the values obtained at t=0 days contact. The normalized cesium and strontium distribution ratios for the FPEX I process solvent and the mixed extractant solvents as a function of contact time are presented in FIGS. 2 and 3, respectively.

[2] = Solubility of the calixarene in the extractant solvent; type: physicochemical

- Strontium distribution ratio as a function of contact time ([1]; contact time 0 days with 1.5 M HNO3, 0.007 M calixarene, 0.075 M DtBuCH18C6, 0.75 M Cs-7SB, 0.003 M TOA in ISOPAR L): 10.5
- Strontium distribution ratio as a function of contact time ([1]; contact time 34 days with 1.5 M HNO3): 7.7
- Strontium distribution ratio as a function of contact time ([1]; contact time 70 days with 1.5 M HNO3): 9.3
- Strontium distribution ratio as a function of contact time ([1]; contact time 278 days with 1.5 M HNO3): 8.0
- precipitation on storage ([2]; 0.05 M MC-8 solvent, room temperature, several months): no observable precipitation
Compound: CCCCCCCCOc1c2cccc1Cc1cccc3c1OCCOCCOc1ccccc1OCCOCCOc1c(cccc1Cc1cccc(c1OCCCCCCCC)C3)C2 [MC-8, 1,3-alternate-25,27-di(octyloxy)calix[4]arenebenzocrown-6]
- solubility in the mixed extractant solvent ([2]; MC-8 varied from 0.01 M to 0.05 M in 0.075 M DtBuCH18C6, 0.75 M Cs-7SB, 0.003 M TOA in ISOPAR L): soluble at these increased concentrations
